# Experimental data published in patent US11214594B2, “Antimicrobial peptide having synergistic antibacterial effect with antibiotics on multidrug resistant bacteria, and use thereof” (priority 2016, dated 2022).
# Like-named read-outs stand apart in the source and are kept apart here. Where a SMILES comes first, the peptide text is derived from it.
# Assays:
# MDREC 1229 = type: cell-based, Escherichia coli
# Summary of the method: (§1)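 Antibiotic MIC came from antibiotic dilutions added to bacteria (2×10^6 CFU/ml, MH medium) already combined with peptide serially diluted 2:1 from its own MIC. Swapping the roles of the two agents gave the peptide MIC.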
# E. coli = type: cell-based, Escherichia coli; details: E. coli
# Summary of the method: as §1
# MDRPA 2003 = type: cell-based, Pseudomonas aeruginosa
# Summary of the method: (§2)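 Broth microdilution in MH medium: bacterial strains diluted to 2×10^6 CFU were mixed with equal volumes of peptide serially diluted twofold in MH medium.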
# MDRPA 2002 = type: cell-based, Pseudomonas aeruginosa
# Summary of the method: as §2
# A. baumannii [1] = experiment: MIC of antibiotic during combined treatment with antimicrobial peptide; type: cell-based, Acinetobacter baumannii; details: for Antibiotic MIC, Erythromycin / Antibiotic MIC, Linezolid / Antibiotic MIC, Vancomycin: A. baumannii
# Summary of the method: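 Antibiotic diluted in MH medium, dispensed per well with peptide; setup repeated with roles reversed; MIC read per combination.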
# MDRAB 12035 [2] = experiment: as above; type: cell-based, Acinetobacter baumannii
# Method: Specifically, the strains described in [Table 2] were prepared and diluted with an MH medium such that the number of bacteria was 2×10^6 colony-forming units (CFUs) per 1 ml, 100 μl of the diluted strains was each aliquoted into a 96-well microtiter plate, and then 50 μl of a peptide solution diluted with the MH medium from the MIC value (solution diluted stepwise at 2: 1) was added to each well. Thereafter, the MIC value of each mixed solution was determined by diluting the antibiotic solution with the MH medium, adding 50 μl of the diluted solution to each well, and performing an experiment even under a reversed condition.
# A. baumannii [3] = experiment: microbe, parasite or virus in culture; type: cell-based, Acinetobacter baumannii
# Summary of the method: as §2
# MDRAB 12035 [4] = experiment: microbe, parasite or virus in culture; type: cell-based, Acinetobacter baumannii
# Summary of the method: as §2
# B. subtilis = experiment: microbe, parasite or virus in culture; type: cell-based, Bacillus subtilis
# Summary of the method: as §2
# [5] = with Erythromycin […] (Conc./MIC 1)
# [6] = combined with peptide at 1 μg/ml
# [7] = combined with peptide at 2 μg/ml
# [8] = combined with peptide at 4 μg/ml
# [9] = combined with peptide at 6 μg/ml
# [10] = combined with peptide at 8 μg/ml
# [11] = combined with peptide at 16 μg/ml
# [12] = combined with peptide at 32 μg/ml
# [13] = combined with peptide at 64 μg/ml
# [14] = peptide treatment concentration 1 μg/ml
# [15] = peptide treatment concentration 2 μg/ml
# [16] = peptide treatment concentration 4 μg/ml
# [17] = peptide treatment concentration 6 μg/ml
# [18] = peptide treatment concentration 8 μg/ml
# [19] = peptide treatment concentration 16 μg/ml
# [20] = peptide treatment concentration 32 μg/ml
# [21] = peptide treatment concentration 64 μg/ml
smiles,measurement,setting,value
"CC[C@H](C)[C@H](NC(=O)[C@H](CCCCN)NC(=O)[C@H](Cc1c[nH]c2ccccc12)NC(=O)[C@@H](N)CCCNC(=N)N)C(=O)N[C@@H](Cc1ccccc1)C(=O)N[C@@H](CCCCN)C(=O)N[C@@H](CCCCN)C(=O)N[C@H](C(=O)N1CCC[C@H]1C(=O)N[C@@H](CCCCN)C(=O)N[C@@H](Cc1ccccc1)C(=O)N[C@@H](CC(C)C)C(=O)N[C@@H](Cc1c[nH]cn1)C(=O)N[C@@H](CO)C(=O)N[C@@H](CC(C)C)C(=O)N[C@@H](CCCCN)C(=O)N[C@@H](CCCCN)C(=O)N[C@@H](Cc1ccccc1)C(N)=O)[C@@H](C)CC [PapMA-6, RWK IFK KIP KFL HSL KKF-NH2] (H-RWKIFKKIPKFLHSLKKF-NH2; N-terminus assumed)",Peptide MIC,MDREC 1229; [5],0 µg/mL
same,Peptide MIC,MDREC 1229; with Linezolid 512 μg/ml (Conc./MIC 1),0 µg/mL
same,Peptide MIC,E. coli; [5],0 µg/mL
same,Peptide MIC,E. coli; with Linezolid […] (Conc./MIC 1),0 µg/mL
same,Peptide MIC,E. coli; with Vancomycin 1024 μg/ml (Conc./MIC 1),0 µg/mL
same,Minimal inhibitory concentration MIC,MDRPA 2003,32 µg/mL
same,Minimal inhibitory concentration MIC,MDRPA 2002,32 µg/mL
same,Synergistic effect of antibacterial activity with existing antibiotics compared with PapMA-1,A. baumannii [1]; A. baumannii and MDRAB 12035,higher level than the PapMA-1 peptide
same,"Antibiotic MIC, Erythromycin",A. baumannii [1]; [6],16 µg/mL
same,"Antibiotic MIC, Linezolid",A. baumannii [1]; [6],128 µg/mL
same,"Antibiotic MIC, Vancomycin",A. baumannii [1]; [6],>128 µg/mL
same,"Antibiotic MIC, Erythromycin",A. baumannii [1]; [7],8 µg/mL
same,"Antibiotic MIC, Linezolid",A. baumannii [1]; [7],64 µg/mL
same,"Antibiotic MIC, Vancomycin",A. baumannii [1]; [7],128 µg/mL
same,"Antibiotic MIC, Erythromycin",A. baumannii [1]; [8],4 µg/mL
same,"Antibiotic MIC, Linezolid",A. baumannii [1]; [8],8 µg/mL
same,"Antibiotic MIC, Vancomycin",A. baumannii [1]; [8],16 µg/mL
same,"Antibiotic MIC, Erythromycin",A. baumannii [1]; [9],2 µg/mL
same,"Antibiotic MIC, Linezolid",A. baumannii [1]; [9],4 µg/mL
same,"Antibiotic MIC, Vancomycin",A. baumannii [1]; [9],8 µg/mL
same,"Antibiotic MIC, Erythromycin",A. baumannii [1]; [10],0.125 µg/mL
same,"Antibiotic MIC, Linezolid",A. baumannii [1]; [10],2 µg/mL
same,"Antibiotic MIC, Vancomycin",A. baumannii [1]; [10],4 µg/mL
same,"Antibiotic MIC, Erythromycin",A. baumannii [1]; [11],0.0625 µg/mL
same,"Antibiotic MIC, Linezolid",A. baumannii [1]; [11],0.5 µg/mL
same,"Antibiotic MIC, Vancomycin",A. baumannii [1]; [11],2 µg/mL
same,"Antibiotic MIC, Erythromycin",A. baumannii [1]; [12],0 µg/mL
same,"Antibiotic MIC, Linezolid",A. baumannii [1]; [12],0 µg/mL
same,"Antibiotic MIC, Vancomycin",A. baumannii [1]; [12],0 µg/mL
same,"Antibiotic MIC, Erythromycin",A. baumannii [1]; [13],0 µg/mL
same,"Antibiotic MIC, Linezolid",A. baumannii [1]; [13],0 µg/mL
same,"Antibiotic MIC, Vancomycin",A. baumannii [1]; [13],0 µg/mL
same,Erythromycin MIC during combined treatment with peptide,MDRAB 12035 [2]; [14],16 µg/mL
same,Linezolid MIC during combined treatment with peptide,MDRAB 12035 [2]; [14],128 µg/mL
same,Vancomycin MIC during combined treatment with peptide,MDRAB 12035 [2]; [14],>128 µg/mL
same,Erythromycin MIC during combined treatment with peptide,MDRAB 12035 [2]; [15],8 µg/mL
same,Linezolid MIC during combined treatment with peptide,MDRAB 12035 [2]; [15],32 µg/mL
same,Vancomycin MIC during combined treatment with peptide,MDRAB 12035 [2]; [15],128 µg/mL
same,Erythromycin MIC during combined treatment with peptide,MDRAB 12035 [2]; [16],4 µg/mL
same,Linezolid MIC during combined treatment with peptide,MDRAB 12035 [2]; [16],16 µg/mL
same,Vancomycin MIC during combined treatment with peptide,MDRAB 12035 [2]; [16],64 µg/mL
same,Erythromycin MIC during combined treatment with peptide,MDRAB 12035 [2]; [17],0.5 µg/mL
same,Linezolid MIC during combined treatment with peptide,MDRAB 12035 [2]; [17],8 µg/mL
same,Vancomycin MIC during combined treatment with peptide,MDRAB 12035 [2]; [17],8 µg/mL
same,Erythromycin MIC during combined treatment with peptide,MDRAB 12035 [2]; [18],0.25 µg/mL
same,Linezolid MIC during combined treatment with peptide,MDRAB 12035 [2]; [18],4 µg/mL
same,Vancomycin MIC during combined treatment with peptide,MDRAB 12035 [2]; [18],8 µg/mL
same,Erythromycin MIC during combined treatment with peptide,MDRAB 12035 [2]; [19],0.125 µg/mL
same,Linezolid MIC during combined treatment with peptide,MDRAB 12035 [2]; [19],2 µg/mL
same,Vancomycin MIC during combined treatment with peptide,MDRAB 12035 [2]; [19],4 µg/mL
same,Erythromycin MIC during combined treatment with peptide,MDRAB 12035 [2]; [20],0.0625 µg/mL
same,Linezolid MIC during combined treatment with peptide,MDRAB 12035 [2]; [20],1 µg/mL
same,Vancomycin MIC during combined treatment with peptide,MDRAB 12035 [2]; [20],2 µg/mL
same,Erythromycin MIC during combined treatment with peptide,MDRAB 12035 [2]; [21],0 µg/mL
same,Linezolid MIC during combined treatment with peptide,MDRAB 12035 [2]; [21],0 µg/mL
same,Vancomycin MIC during combined treatment with peptide,MDRAB 12035 [2]; [21],0 µg/mL
same,Minimal inhibitory concentration MIC,A. baumannii [3],32 µg/mL
same,"Peptide MIC, peptide alone",A. baumannii [3],32 µg/mL
same,Minimal inhibitory concentration MIC,MDRAB 12035 [4],64 µg/mL
same,"Peptide MIC, peptide alone",MDRAB 12035 [4],64 µg/mL
same,Minimal inhibitory concentration MIC,B. subtilis,>128 µg/mL
